Laboratory results published in paper PMC9369794 (Molecules, 2022).

What was measured:
[1] = Hydrodynamic diameter and colloidal stability of aggregates by dynamic light scattering; assay type: physicochemical; details: for mean size (hydrodynamic diameter) / zeta potential: 37 °C; for PDI: sd^2/mean size^2
How it was run: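 Hydrodynamic diameter (number-weighted; PDI as sd^2/mean size^2) and zeta potential were measured by DLS at 173° scattering angle. Samples, 0.3125–5 µM DMSO solutions diluted into PBS, were examined after 6 min incubation at 37 °C.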

[2] = FRAP assay for the antioxidant capacity; parameters: key to FRAP: slope of concentration-absorbance line divided by Trolox slope; details: for FRAP: stock in THF, acetate buffer pH 3.0, 37 °C, 15 min, ratio of slopes to trolox (melatonin in EtOH)
How it was run: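 Fe^3+→Fe^2+ reduction by antioxidants (THF stocks) in FRAP reagent (FeCl3/TPTZ, 300 mM acetate buffer pH 3.0), 15 min at 37 °C in the dark. Absorbance at 600 nm measured in triplicate at 0-17.5 μM final. FRAP value = slope of absorbance-concentration line divided by Trolox slope.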

[3] = 0.3125 μM in PBS from DMSO stock
[4] = 0.625 μM in PBS from DMSO stock

In the case of `CC1=C(/C=C/C(C)=C/C=C/C(C)=C/C=C/C=C(C)/C=C/C=C(C)/C=C/C2=C(C)C[C@@H](OC(=O)CCC(=O)O)CC2(C)C)C(C)(C)CCC1` [Compound 8, β-Cryptoxanthin succinate], the “mean size (hydrodynamic diameter)” value [1, 3] is reported as 11.04 nm, the zeta potential [1, 3] is reported as 34.1 mV and the PDI ([1]; 0.3125 μM in PBS) is reported as 0.0168. For the same compound, the “mean size (hydrodynamic diameter)” value [1, 4] was 25.68 nm, the zeta potential [1, 4] was 27.5 mV and the PDI ([1]; 0.625 μM in PBS) was 0.0307. The “mean size (hydrodynamic diameter)” value ([1]; 1.25 μM in PBS from DMSO stock) was 31.94 nm, the zeta potential ([1]; 1.25 μM in PBS from DMSO stock) was 21 mV and the PDI ([1]; 1.25 μM in PBS) was 0.0723. For the same compound, the “mean size (hydrodynamic diameter)” value ([1]; 2.5 μM in PBS from DMSO stock) was 34.03 nm, the zeta potential ([1]; 2.5 μM in PBS from DMSO stock) was 17.6 mV and the PDI ([1]; 2.5 μM in PBS) was 0.0360. The “mean size (hydrodynamic diameter)” value ([1]; 3.75 μM in PBS from DMSO stock) was 468.90 nm, the zeta potential ([1]; 3.75 μM in PBS from DMSO stock) was 2.55 mV and the PDI ([1]; 3.75 μM in PBS) was 0.0131. For the same compound, the “mean size (hydrodynamic diameter)” value ([1]; 5 μM in PBS from DMSO stock) was 14.19 nm, the zeta potential ([1]; 5 μM in PBS from DMSO stock) was −0.01 mV and the PDI ([1]; 5 μM in PBS) was 0.0339. It also gave an FRAP [2] of 0.181.

In the case of `CC1=C(/C=C/C(C)=C/C=C/C(C)=C/C=C/C=C(C)/C=C/C=C(\C)COC(=O)CCC(=O)O)C(C)(C)CCC1` [Compound 6, 8′-Apo-β-carotenol succinate], the “mean size (hydrodynamic diameter)” value [1, 3] is reported as 303.50 nm, the zeta potential [1, 3] is reported as −8.2 mV and the PDI ([1]; 0.3125 μM in PBS) is reported as 0.0137. The “mean size (hydrodynamic diameter)” value [1, 4] was 395.10 nm, the zeta potential [1, 4] was −10.2 mV and the PDI ([1]; 0.625 μM in PBS) was 0.0455. The “mean size (hydrodynamic diameter)” value ([1]; 1.25 μM in PBS from DMSO stock) was 221.50 nm, the zeta potential ([1]; 1.25 μM in PBS from DMSO stock) was −17.7 mV and the PDI ([1]; 1.25 μM in PBS) was 0.0218. For the same compound, the “mean size (hydrodynamic diameter)” value ([1]; 2.5 μM in PBS from DMSO stock) was 26.74 nm, the zeta potential ([1]; 2.5 μM in PBS from DMSO stock) was −30.5 mV and the PDI ([1]; 2.5 μM in PBS) was 0.0206. The “mean size (hydrodynamic diameter)” value ([1]; 3.75 μM in PBS from DMSO stock) was 152.60 nm, the zeta potential ([1]; 3.75 μM in PBS from DMSO stock) was −12.3 mV and the PDI ([1]; 3.75 μM in PBS) was 0.0268. The “mean size (hydrodynamic diameter)” value ([1]; 5 μM in PBS from DMSO stock) was 144.20 nm, the zeta potential ([1]; 5 μM in PBS from DMSO stock) was −27.5 mV and the PDI ([1]; 5 μM in PBS) was 0.0204. For the same compound, the “FRAP value relative to the succinates of the other carotenoids” value ([2]; acetate buffer pH 3.0) was 1.5–2 times and the FRAP [2] was 0.276.

In the case of `CC1=C(/C=C/C(C)=C/C=C/C(C)=C/C=C/C=C(C)/C=C/C=C(C)/C=C/C2=C(C)C[C@@H](OC(=O)CCC(=O)O)CC2(C)C)C(C)(C)C[C@H](OC(=O)CCC(=O)O)C1` [Compound 7, Zeaxanthin bissuccinate], the “mean size (hydrodynamic diameter)” value [1, 3] is reported as 1050.00 nm, the zeta potential [1, 3] is reported as 27.5 mV and the PDI ([1]; 0.3125 μM in PBS) is reported as 0.0407. The “mean size (hydrodynamic diameter)” value [1, 4] was 429.30 nm, the zeta potential [1, 4] was 23.4 mV and the PDI ([1]; 0.625 μM in PBS) was 0.0162. The “mean size (hydrodynamic diameter)” value ([1]; 1.25 μM in PBS from DMSO stock) was 544.50 nm, the zeta potential ([1]; 1.25 μM in PBS from DMSO stock) was 21.1 mV and the PDI ([1]; 1.25 μM in PBS) was 0.0294. The “mean size (hydrodynamic diameter)” value ([1]; 2.5 μM in PBS from DMSO stock) was 195.60 nm, the zeta potential ([1]; 2.5 μM in PBS from DMSO stock) was 17.9 mV and the PDI ([1]; 2.5 μM in PBS) was 0.0202. The “mean size (hydrodynamic diameter)” value ([1]; 3.75 μM in PBS from DMSO stock) was 44.78 nm, the zeta potential ([1]; 3.75 μM in PBS from DMSO stock) was 20.0 mV and the PDI ([1]; 3.75 μM in PBS) was 0.0267. The “mean size (hydrodynamic diameter)” value ([1]; 5 μM in PBS from DMSO stock) was 238.20 nm, the zeta potential ([1]; 5 μM in PBS from DMSO stock) was 20.1 mV and the PDI ([1]; 5 μM in PBS) was 0.0270. It also gave an FRAP [2] of 0.155.
